Key:
[1] = Stability against liver homogenate of mice; type: in vitro ADME, mice (ICB strain); details: for remaining at 1 h: pH 7.2, mouse liver homogenate supernatant, 37° C., contact 60 minutes, read-out: Residual Intact Compound Rate
Description: Liver from ICB strain mice was homogenated with a potter's homogenizer (3000 rpm, 10 minutes) together with a 5-fold amount of 0.1M phosphate buffer (pH 7.2). To the supernatant was added 1 ml of a 500 μg/ml (10% methanolic water) of a specimen. After the mixture was reacted at 37° C. for 1 hour, the reaction mixture was heated at 100° C. for 3 minutes. Then, 1 ml of 0.1M phosphate buffer (pH 9.0) was added thereto and extracted with 1 ml of ethyl acetate. The organic layer was subjected to silica gel thin layer chromatograph y (chloroform/methanol/ammonia=15/1.2/0.1). By a chromatographic scanner (283 nm), a formation ratio of the unchanged substance to the hydrolysate was determined and the formation of the hydrolysate was expressed by percentage.

[2] = tested on: resistant bacteria; details: drug-resistant bacteria
[3] = tested on: infectious diseases of mice; test: Experiment of treatment for infectious diseases of mice; type: in vivo
[4] = tested on: pathogenic microorganisms; test: Antibacterial activity in general (in words); type: cell-based
[5] = tested on: resistant bacteria; details: U.S. Pat. No. 4,205,163; cited from earlier work
[6] = tested on: esterase; test: Hydrolysis by esterase in vivo (particularly in liver)

Row | SMILES | remaining at 1 h [1] [%] | further results
1 | CCC1OC(=O)CC(O)C(C)C(OC2OC(C)C(OC3CC(C)(O)C(OC(=O)Cc4ccc(S(C)(=O)=O)cc4)C(C)O3)C(N(C)C)C2O)C(CC=O)CC(C)C(=O)C=CC(C)=CC1COC1OC(C)C(O)C(OC)C1OC (stereo not shown) [Compound 1, 4"-O-(4-Methylsulfonylphenylacetyl)tylosin] | 89 | –
2 | CCC1OC(=O)CC(O)C(C)C(OC2OC(C)C(OC3CC(C)(O)C(OC(=O)Cc4ccc(SC)cc4)C(C)O3)C(N(C)C)C2O)C(CC=O)CC(C)C(=O)C=CC(C)=CC1COC1OC(C)C(O)C(OC)C1OC (stereo not shown) [Compound 2, 4"-O-(4-Methylthiophenylacetyl)tylosin] | 84 | –
3 | CCC1OC(=O)CC(O)C(C)C(OC2OC(C)C(OC3CC(C)(O)C(OC(=O)Cc4ccc(C(C)=O)cc4)C(C)O3)C(N(C)C)C2O)C(CC=O)CC(C)C(=O)C=CC(C)=CC1C (stereo not shown) [Compound 3] | 95 | –
4 | CCC1OC(=O)CC(O)C(C)C(OC2OC(C)C(OC3CC(C)(O)C(OC(=O)Cc4ccc(C(=O)c5ccccc5)cc4)C(C)O3)C(N(C)C)C2O)C(CC=O)CC(C)C(=O)C=CC(C)=CC1COC1OC(C)C(O)C(OC)C1OC (stereo not shown) [Compound 4, 4"-O-(4-Benzoylphenylacetyl)tylosin] | 82 | –
5 | CCC1OC(=O)CC(O)C(C)C(OC2OC(C)C(OC3CC(C)(O)C(OC(=O)Cc4ccc(OC)cc4)C(C)O3)C(N(C)C)C2O)C(CC=O)CC(C)C(=O)C=CC(C)=CC1COC1OC(C)C(O)C(OC)C1OC (stereo not shown) [Compound 5, 4"-O-(4-Methoxyphenylacetyl)tylosin] | 94 | –
6 | CCC1OC(=O)CC(O)C(C)C(OC2OC(C)C(OC3CC(C)(O)C(OC(=O)Cc4ccc(F)cc4)C(C)O3)C(N(C)C)C2O)C(CC=O)CC(C)C(=O)C=CC(C)=CC1COC1OC(C)C(O)C(OC)C1OC (stereo not shown) [Compound 6, 4"-O-(4-Fluorophenylacetyl)tylosin] | 95 | –
7 | CCC1OC(=O)CC(O)C(C)C(OC2OC(C)C(OC3CC(C)(O)C(OS(=O)(=O)Cc4ccc(F)cc4)C(C)O3)C(N(C)C)C2O)C(CC=O)CC(C)C(=O)C=CC(C)=CC1COC1OC(C)C(O)C(OC)C1OC (stereo not shown) [Compound 7, 4"-O-(4-Fluorobenzylsulfonyl)tylosin] | < 95 | –
8 | CCC1OC(=O)CC(O)C(C)C(OC2OC(C)C(OC3CC(C)(O)C(OC(=O)Cc4ccc(C(C)=O)cc4)C(C)O3)C(N(C)C)C2O)C(CC=O)CC(C)C(=O)C=CC(C)=CC1COC1OC(C)C(O)C(OC)C1OC (stereo not shown) [Compound 8, 4"-O-(4-Acetylphenylacetyl)tylosin] | < 95 | –
9 | CCC1OC(=O)CC(O)C(C)C(OC2OC(C)C(OC3CC(C)(O)C(OC(=O)Cc4ccccc4F)C(C)O3)C(N(C)C)C2O)C(CC=O)CC(C)C(=O)C=CC(C)=CC1COC1OC(C)C(O)C(OC)C1OC (stereo not shown) [Compound 9, 4"-O-(2-Fluorophenylacetyl)tylosin] | 95 | –
10 | CCC1OC(=O)CC(OC(C)=O)C(C)C(OC2OC(C)C(OC3CC(C)(O)C(OC(=O)Cc4ccc(C(C)=O)cc4)C(C)O3)C(N(C)C)C2O)C(CC=O)CC(C)C(=O)C=CC(C)=CC1COC1OC(C)C(O)C(OC)C1OC (stereo not shown) [Compound 10, 3-O-acetyl-4"-O-(4-acetylphenylacetyl)tylosin] | < 95 | –
11 | CCC1OC(=O)CC(O)C(C)C(OC2OC(C)C(OC3CC(C)(O)C(OC(=O)Cc4ccccc4)C(C)O3)C(N(C)C)C2O)C(CC=O)CC(C)C(=O)C=CC(C)=CC1COC1OC(C)C(O)C(OC)C1OC (stereo not shown) [Control 1, reference compound] | – | stability against liver homogenate (in words) ([1]; liver homogenate of mice): good result; antibacterial activity against resistant bacteria (in words) [2]: poor in antibacterial activity against resistant bacteria
12 | CCC1OC(=O)CC(O)C(C)C(OC2OC(C)C(OC3CC(C)(O)C(OC(=O)CSc4ccccc4)C(C)O3)C(N(C)C)C2O)C(CC=O)CC(C)C(=O)C=CC(C)=CC1COC1OC(C)C(O)C(OC)C1OC (stereo not shown) [Control 2, 4"-O-phenylthioacetyltylosin] | 0 | result in experiment of treatment for infectious diseases of mice (in words) [3]: merely unsatisfactory results; antibacterial activity (in words) [4]: high antibacterial activity in vitro; effectiveness against macrolide-resistant bacteria (in words) [5]: most effective tylosin derivative against macrolide-resistant bacteria; hydrolysis by esterase (in words) [6]: completely hydrolyzed by esterase
13 | CCC1OC(=O)CC(O)C(C)C(OC2OC(C)C(OC3CC(C)(O)C(OC(=O)Cc4ccccc4)C(C)O3)C(N(C)C)C2O)C(CC=O)CC(C)C(=O)C=CC(C)=CC1COC1OC(C)C(O)C(OC)C1OC (stereo not shown) [Control 3, reference compound] | < 95 | –
14 | CCC1OC(=O)CC(O)C(C)C(OC2OC(C)C(OC3CC(C)(O)C(OS(=O)(=O)Cc4ccccc4)C(C)O3)C(N(C)C)C2O)C(CC=O)CC(C)C(=O)C=CC(C)=CC1COC1OC(C)C(O)C(OC)C1OC (stereo not shown) [Control 4, reference compound] | 0 | –
